From PubChem BioAssay (NCI)
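48-hour exposure; five concentrations; linearly interpolated endpoints. At the TGI there is no net growth.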

Key:
Assay in all cases: NCI tumour cell line growth inhibition, 48 h
[1] = tested on: 786-0 renal
[2] = tested on: A498 renal
[3] = tested on: CAKI-1 renal
[4] = tested on: HCT-116 colon
[5] = tested on: HOP-62 NSCLC
[6] = tested on: K-562 leukemia
[7] = tested on: MALME-3M melanoma
[8] = tested on: MDA-MB-435
[9] = tested on: NCI-H522 lung
[10] = tested on: NCI/ADR-RES ovarian
[11] = tested on: OVCAR-4 ovarian
[12] = tested on: OVCAR-5 ovarian
[13] = tested on: SF-268 CNS
[14] = tested on: SK-MEL-2 melanoma
[15] = tested on: SK-MEL-5 melanoma
[16] = tested on: SN12C renal
[17] = tested on: ACHN renal
[18] = tested on: SK-MEL-28 melanoma
[19] = tested on: SNB-19 CNS

Row | SMILES | TGI [1] [µM] | TGI [2] [µM] | TGI [3] [µM] | TGI [4] [µM] | TGI [5] [µM] | TGI [6] [µM] | TGI [7] [µM] | TGI [8] [µM] | TGI [9] [µM] | TGI [10] [µM] | TGI [11] [µM] | TGI [12] [µM] | TGI [13] [µM] | TGI [14] [µM] | TGI [15] [µM] | TGI [16] [µM] | TGI [17] [µM] | TGI [18] [µM] | TGI [19] [µM]
1 | c1ccc2nn(C3CCCO3)nc2c1 (stereo unspecified) | > 100 | > 100 | > 100 | > 100 | > 100 | > 100 | > 100 | > 100 | > 100 | > 100 | > 100 | > 100 | > 100 | > 100 | > 100 | > 100 | – | – | –
2 | CC(C)CC(NC=O)C(=O)NC(Cc1ccccc1)NC(=O)CNC(=O)C(C)NC(=O)C(N)Cc1ccc(O)cc1 (stereo unspecified) | > 100 | > 100 | > 100 | > 100 | > 100 | > 100 | – | > 100 | > 100 | > 100 | > 100 | > 100 | > 100 | – | > 100 | > 100 | > 100 | > 100 | > 100
3 | C(=N\NC1=NCCN1)/c1cccc2cc3ccncc3nc12 | 4.51 | 23.9 | 14.1 | 3.19 | 19.7 | – | 23.4 | 10.5 | 11.9 | 25.2 | 12.3 | – | 14.2 | – | 22.9 | 14.9 | 13.6 | 22.8 | 21.4
4 | CCOC(=O)Nc1n[nH]nc1Cl | > 100 | > 100 | > 100 | > 100 | > 100 | > 100 | > 100 | > 100 | > 100 | > 100 | > 100 | > 100 | > 100 | > 100 | > 100 | > 100 | – | > 100 | –
5 | COc1cc2cc3c4cc(OC)c(OC)cc4cc[n+]3c(C)c2cc1OC | 37.9 | > 100 | > 100 | > 100 | – | > 100 | > 100 | > 100 | > 100 | > 100 | > 100 | > 100 | > 100 | > 100 | > 100 | > 100 | > 100 | > 100 | > 100
6 | O=C(O)c1cccc(OCCOc2cccc(C(=O)O)c2[N+](=O)[O-])c1[N+](=O)[O-] | > 100 | > 100 | > 100 | > 100 | > 100 | – | > 100 | > 100 | > 100 | > 100 | > 100 | > 100 | > 100 | > 100 | > 100 | > 100 | > 100 | > 100 | > 100
7 | c1ccc2cc(CNCCCCNCCCNCc3ccc4ccccc4c3)ccc2c1 | 0.323 | 4.42 | 3.31 | 0.318 | 3.31 | – | 3.28 | 3.1 | 2.78 | 3.47 | 3.08 | 3.61 | 2.83 | 4.16 | – | 0.879 | 2.92 | 3.34 | 2.8
8 | O=c1oc2ccc3ccccc3c2cc1-c1cn2c(n1)sc1ccccc12 | > 100 | > 100 | > 100 | > 100 | > 100 | > 100 | > 100 | > 100 | > 100 | > 100 | > 100 | > 100 | > 100 | > 100 | > 100 | – | > 100 | > 100 | > 100
9 | O=c1nc2c(c(-c3ccc(F)cc3)[nH]1)COC/C2=C\c1ccc(F)cc1 | > 100 | > 100 | > 100 | > 100 | > 100 | > 100 | – | > 100 | > 100 | > 100 | > 100 | > 100 | > 100 | > 100 | > 100 | > 100 | > 100 | – | > 100
10 | CCOC(=O)C1=CNC(C(=O)OCC)C1c1cccn1-c1ccccc1 (stereo unspecified) | > 100 | > 100 | > 100 | 58.6 | > 100 | > 100 | – | 57.6 | 59.1 | 91.4 | > 100 | > 100 | > 100 | 37.2 | 31.5 | > 100 | > 100 | 76.3 | –
11 | Cc1ccc(S(=O)(=O)ON2C(=O)c3c(N)c(C#N)c(-c4ccccc4)c(-c4ccccc4)c3C2=O)cc1 | 29.8 | 44.1 | 29.8 | 33.1 | – | > 100 | 45.8 | 22.1 | 33.2 | 62.4 | 52.4 | 60 | > 100 | 54.2 | 40.6 | 40 | 31.1 | 29.4 | > 100
12 | CCCCOC(=O)NC(Nc1ccc(S(=O)(=O)Nc2ncccn2)cc1)(C(F)(F)F)C(F)(F)F | > 100 | > 100 | > 100 | > 100 | > 100 | > 100 | > 100 | > 100 | > 100 | > 100 | > 100 | > 100 | > 100 | – | > 100 | > 100 | > 100 | > 100 | > 100
13 | S=C(Nc1ccc2c(c1)oc1ccccc12)c1cccs1 | 68.9 | > 100 | > 100 | > 100 | > 100 | – | – | > 100 | > 100 | > 100 | > 100 | > 100 | > 100 | > 100 | > 100 | > 100 | > 100 | > 100 | > 100
14 | [N-]=[N+]=CC(=O)OCC1NC(=O)C(COC(=O)C=[N+]=[N-])NC1=O (stereo unspecified) | > 100 | > 100 | > 100 | > 100 | > 100 | > 100 | > 100 | > 100 | – | > 100 | > 100 | > 100 | > 100 | > 100 | – | > 100 | > 100 | > 100 | > 100
